Experimental data published in patent US20140045856A1, “4-Methyl-2,3,5,9,9b-pentaaza-cyclopenta[a]naphthalenes” (BOEHRINGER INGELHEIM INTERNATIONAL GMBH, priority 2012, published 2014).
Like-named read-outs stand apart in the source and are kept apart here.

Key:
PDE2A = PDE2A (Homo sapiens, UniProt O00408); assay: PDE 2A assay with fluorescent substrate (IMAP, fluorescence polarization); assay type: biochemical; settings: read-out: PDE2 IC50
PDE10 = PDE10 (Homo sapiens, UniProt Q9Y233); assay: PDE10 assay with fluorescent substrate (IMAP, fluorescence polarization); assay type: biochemical
From the text: c) Phosphodiesterase (PDE) 2A and 10 Assay with Fluorescent Substrate
The PDE reaction cleaves cAMP to AMP. The IMAP system (Molecular Device) using fluorescence polarization (FP) as detection principle was used to measure enzyme activity. A fluorescent labeled cAMP was used as substrate for the reaction, generating a labeled AMP. The fluorescent AMP binds specifically to the large M(III)-based nano-particles which reduces the rotational speed of the substrate and thus increases its polarization.
The inhibition of PDE 2A or 10 enzyme activity was assessed using IMAP-Phosphodiesterase-cAMP fluorescence labeled substrate (Molecular Devices, Order No. R7506), IMAP TR-FRET screening express (Molecular Devices, Order No. R8160, the TR-FRET component will not be used) and PDE 2A or PDE10 protein expressed upon baculovirus infection in SF9 cells. The cells were incubated after infection for ˜3 days and protein production was confirmed by Western Blot. The cells were collected by centrifugation and the pellet frozen in liquid nitrogen before it was resuspended in PBS containing 1% Triton X-100 and protease inhibitors.
All reactions were performed in 384 well plates, Perkin Elmer black optiplates and IMAP reaction buffer with 0.1% Tween20 (kit component)
Compounds were serial diluted in DMSO. With an intermediate dilution step with reaction buffer DMSO concentration was reduced to achieve 1% DMSO in the assay reaction. Setup of the assay started with 10 μl enzyme (˜10 ng/well, depending on prep. batch), 5 μl compound, reaction was started by addition of 5 μl labeled cAMP (30 nM, final concentration), immediately mixed for 15 seconds on a Eppendorf mixmate (2000 rpm) followed by an incubation at room temperature for 90 minutes in the dark. Reaction is stopped by adding of 60 μl binding buffer for FP/cAMP (kit component).
Each assay plate contained wells with vehicle controls (1% DMSO) for the measurement of non-inhibited reaction (=100% control) and wells without enzyme as 0% controls.

hERG channel = hERG channel (Homo sapiens, UniProt Q12809); assay: hERG channel assay (whole-cell patch clamp, HEK293 cells transfected with hERG cDNA); assay type: cell-based; settings: 35° C.
From the text: hERG (Human Ether-à-Go-Go-Related Gene)-Channel Assay
hERG channel inhibition of compounds of the present invention has been investigated as follows:
HEK (human embryonic kidney) 293 cells were stably transfected with hERG cDNA. Cells were superfused with a bath solution containing (mM): NaCl (137), KCl (4.0), MgCl2 (1.0), CaCl2 (1.8), Glucose (10), HEPES (10), pH 7.4 with NaOH. Patch pipettes were made from borosilicate glass tubing using a horizontal puller and filled with pipette solution containing (mM): K-aspartate (130), MgCl2 (5.0), EGTA (5.0), K2ATP (4.0), HEPES (10.0), pH 7.2 with KOH. Resistance of the microelectrodes was in the range between 2 and 5 MΩ.
Stimulation and Recording:
Membrane currents were recorded using an EPC-10 patch clamp amplifier and PatchMaster software. hERG-mediated membrane currents were recorded at 35° C., using the whole-cell configuration of the patch-clamp technique. Transfected HEK293 cells were clamped at a holding potential of −60 mV and hERG-mediated inactivating tail currents were elicited using a pulse pattern with fixed amplitudes (activation/inactivation: 40 mV for 2000 ms; recovery: […]; ramp to 40 mV in 2 ms; inactivating tail current: 40 mV for 50 ms) repeated at 15 s intervals. During each inter-pulse interval 4 pulses scaled down by a factor of 0.2 were recorded for a P/n leak subtraction procedure. […] compensation was employed up to a level that safely allowed recording devoid of ringing.
Compound Preparation and Application:
The different concentrations of the test compound were applied sequentially on each of the different cells investigated. A steady state level of baseline current was measured for at least 6 sweeps prior to the application of the first test compound concentration.
The test compound was dissolved in DMSO to yield a master stock solution which was diluted further in DMSO to stock solutions needed for the lower concentrations. Final dilutions in extracellular buffer were prepared freshly from these stocks by a 1:1000 dilution step each before starting the experiments.
Data analysis and IC50 determination:
Peak current amplitudes were measured 3 ms after the ramp to +40 mV. For baseline and each concentration the peak currents of the three last sweeps before application of the next concentration were averaged. Residual currents ( 1/10) were calculated for each cell as the fraction of actual average peak current and average baseline peak current.
The logistic concentration-response curve of the following form was fitted to the residual current data using a genetic algorithm:
C: actual concentration of compound (in μM) IC50: half-inhibitory concentration (in μM) p: Hill slope

[1] = Metabolic stability in pooled liver microsomes; assay type: in vitro ADME; settings: human liver microsomes, 37° C., 1 mg/mL microsomal protein, test compound 1 μM, NADPH; for half-life at 1 μM: pooled liver microsomes, pH 7.6, read-out: Half-life - t½
Protocol: The metabolic stability of the compounds according to the invention has been investigated as follows:
The metabolic degradation of the test compound was assayed at 37° C. with pooled liver microsomes from various species. The final incubation volume of 100 μl per time point contains TRIS buffer pH 7.6 at room temperature (0.1 M), magnesium chloride (5 mM), microsomal protein (1 mg/mL for human and dog, 0.5 mg/mL for other species) and the test compound at a final concentration of 1 μM. Following a short preincubation period at 37° C., the reactions were initiated by addition of betanicotinamide adenine dinucleotide phosphate, reduced form (NADPH, 1 mM), and terminated by transferring an aliquot into solvent after different time points. […] The half-life was determined by the slope of the semi-logarithmic plot of the concentration-time profile.

[2] = Animal experiments and sample analysis: plasma, brain and CSF concentration; assay type: in vivo; settings: rat; for concentration at 2 h / Kp at 2 h: 2 h between administration and CSF sampling; for concentration at 2 h / concentration at 0.5 h: doses of 10.0 or 5 μmol/kg; for concentration at 0.5 h / Kp at 0.5 h: 0.5 h between administration and CSF sampling
Protocol: Test compounds were administered to animals (rat) different routes at doses of 10.0 or 5 μmol/kg, (both oral and intravenous). After compound administration, the animals were sacrificed in a CO2 chamber and CSF samples were carefully collected by puncture of the cisterna magna. Immediately after CSF sampling, blood was taken by heart puncture and brains were dissected out. Blood was collected in EDTA-coated microvettes and plasma was prepared by centrifugation. Concentration of the test compounds in plasma, CSF or brain homogenate was determined using HPLC-MS-MS.

[3] = brain, read-out: c(brain)/c(plasma)

PDE2A, sequence (O00408 whole entry, species assumed): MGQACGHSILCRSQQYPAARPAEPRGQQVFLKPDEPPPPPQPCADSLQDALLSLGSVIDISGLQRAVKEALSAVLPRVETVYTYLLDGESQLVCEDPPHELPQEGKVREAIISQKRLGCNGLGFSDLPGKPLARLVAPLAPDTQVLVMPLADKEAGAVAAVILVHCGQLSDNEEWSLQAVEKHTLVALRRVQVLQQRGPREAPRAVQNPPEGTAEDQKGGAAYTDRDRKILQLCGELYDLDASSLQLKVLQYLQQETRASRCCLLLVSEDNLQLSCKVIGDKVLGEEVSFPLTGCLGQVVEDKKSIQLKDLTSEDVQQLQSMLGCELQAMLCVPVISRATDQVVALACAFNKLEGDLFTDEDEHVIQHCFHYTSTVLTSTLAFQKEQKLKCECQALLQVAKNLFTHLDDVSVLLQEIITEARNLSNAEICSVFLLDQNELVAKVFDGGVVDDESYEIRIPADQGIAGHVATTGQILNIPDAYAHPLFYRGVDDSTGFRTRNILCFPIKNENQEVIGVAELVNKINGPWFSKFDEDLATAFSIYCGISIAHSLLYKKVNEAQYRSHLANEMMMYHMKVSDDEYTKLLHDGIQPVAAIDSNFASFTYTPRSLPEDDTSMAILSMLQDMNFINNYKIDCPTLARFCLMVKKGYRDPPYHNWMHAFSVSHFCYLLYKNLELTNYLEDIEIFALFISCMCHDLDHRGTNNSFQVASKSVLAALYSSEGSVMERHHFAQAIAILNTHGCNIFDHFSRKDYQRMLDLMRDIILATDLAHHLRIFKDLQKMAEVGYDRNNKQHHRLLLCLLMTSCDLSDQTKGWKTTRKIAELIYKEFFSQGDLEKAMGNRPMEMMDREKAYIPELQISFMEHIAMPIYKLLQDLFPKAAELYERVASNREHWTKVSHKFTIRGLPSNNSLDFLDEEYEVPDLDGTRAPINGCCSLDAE
PDE10, sequence (Q9Y233 whole entry, species assumed): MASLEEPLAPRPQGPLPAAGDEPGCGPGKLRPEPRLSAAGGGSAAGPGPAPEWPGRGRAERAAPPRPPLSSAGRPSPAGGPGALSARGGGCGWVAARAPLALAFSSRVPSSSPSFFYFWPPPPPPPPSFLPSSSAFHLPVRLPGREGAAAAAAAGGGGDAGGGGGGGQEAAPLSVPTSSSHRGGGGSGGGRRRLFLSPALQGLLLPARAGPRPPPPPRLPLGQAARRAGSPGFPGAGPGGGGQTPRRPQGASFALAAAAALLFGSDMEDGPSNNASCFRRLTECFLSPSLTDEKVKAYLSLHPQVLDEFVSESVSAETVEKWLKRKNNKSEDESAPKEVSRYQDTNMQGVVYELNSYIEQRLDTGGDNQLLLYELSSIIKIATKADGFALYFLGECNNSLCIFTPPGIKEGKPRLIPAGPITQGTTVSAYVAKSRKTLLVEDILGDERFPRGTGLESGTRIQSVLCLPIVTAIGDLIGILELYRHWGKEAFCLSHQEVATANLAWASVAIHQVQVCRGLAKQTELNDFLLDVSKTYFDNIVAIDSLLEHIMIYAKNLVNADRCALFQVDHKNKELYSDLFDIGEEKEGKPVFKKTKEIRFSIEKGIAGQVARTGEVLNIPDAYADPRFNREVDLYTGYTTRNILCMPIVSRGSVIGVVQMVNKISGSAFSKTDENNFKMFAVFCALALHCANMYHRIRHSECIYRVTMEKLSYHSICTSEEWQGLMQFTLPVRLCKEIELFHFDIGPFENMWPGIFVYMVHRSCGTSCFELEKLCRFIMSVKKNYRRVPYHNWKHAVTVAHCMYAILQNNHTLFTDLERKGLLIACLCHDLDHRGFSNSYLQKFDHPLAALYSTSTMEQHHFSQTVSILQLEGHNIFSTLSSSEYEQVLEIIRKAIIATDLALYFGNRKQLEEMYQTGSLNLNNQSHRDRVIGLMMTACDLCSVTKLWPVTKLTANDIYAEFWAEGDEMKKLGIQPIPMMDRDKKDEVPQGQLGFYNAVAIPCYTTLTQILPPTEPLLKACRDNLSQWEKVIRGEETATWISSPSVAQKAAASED
hERG channel, sequence (Q12809 whole entry): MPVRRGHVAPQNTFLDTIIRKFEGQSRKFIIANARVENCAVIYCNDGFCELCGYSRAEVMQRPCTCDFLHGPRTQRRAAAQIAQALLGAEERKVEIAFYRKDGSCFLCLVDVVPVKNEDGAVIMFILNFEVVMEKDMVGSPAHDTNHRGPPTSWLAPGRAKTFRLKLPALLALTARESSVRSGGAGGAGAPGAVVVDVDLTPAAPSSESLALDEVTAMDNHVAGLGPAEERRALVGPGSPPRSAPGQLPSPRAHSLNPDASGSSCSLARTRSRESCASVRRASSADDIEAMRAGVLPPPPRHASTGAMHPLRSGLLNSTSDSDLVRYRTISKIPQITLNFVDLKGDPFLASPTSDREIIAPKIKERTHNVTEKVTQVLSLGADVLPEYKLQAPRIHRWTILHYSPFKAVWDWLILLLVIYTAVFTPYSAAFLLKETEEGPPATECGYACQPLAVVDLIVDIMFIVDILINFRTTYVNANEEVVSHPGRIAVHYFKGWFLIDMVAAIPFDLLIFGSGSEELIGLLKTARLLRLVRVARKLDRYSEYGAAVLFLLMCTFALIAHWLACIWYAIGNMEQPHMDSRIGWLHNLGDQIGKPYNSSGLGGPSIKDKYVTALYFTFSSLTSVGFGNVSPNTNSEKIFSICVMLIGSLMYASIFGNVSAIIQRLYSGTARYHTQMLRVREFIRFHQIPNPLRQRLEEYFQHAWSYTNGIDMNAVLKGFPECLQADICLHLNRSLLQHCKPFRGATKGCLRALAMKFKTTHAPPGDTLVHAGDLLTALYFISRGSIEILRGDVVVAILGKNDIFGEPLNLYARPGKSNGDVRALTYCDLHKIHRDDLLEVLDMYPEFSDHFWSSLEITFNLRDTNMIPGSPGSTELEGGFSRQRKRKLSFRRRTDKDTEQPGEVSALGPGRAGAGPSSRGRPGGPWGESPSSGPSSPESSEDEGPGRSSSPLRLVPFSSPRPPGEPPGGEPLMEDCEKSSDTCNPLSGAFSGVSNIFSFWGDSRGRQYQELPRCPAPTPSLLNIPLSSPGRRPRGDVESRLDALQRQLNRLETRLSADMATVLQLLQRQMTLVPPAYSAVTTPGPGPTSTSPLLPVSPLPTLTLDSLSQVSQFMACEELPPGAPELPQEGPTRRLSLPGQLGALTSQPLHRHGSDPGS

SMILES	IC50 (PDE2A) [nM]	IC50 (PDE10) [nM]	Half-life - t½ [1] [min]	also measured
Cc1nc2ccc(C3CC3)nc2n2c(-c3cc(CCC(C)(C)O)ccc3F)nnc12 [Example 66]	3	674		IC50 (hERG channel): > 10 µM
Cc1ccc(C2(O)CCOCC2O)cc1-c1nnc2c(C)nc3ccc(C4CC4)nc3n12 (racemic) [Example 104]	36	7720	130	
Cc1ccc(C2(O)CCC2)cc1-c1nnc2c(C)nc3cccnc3n12 [Example 73]	189		130	
Cc1ccc(OC2COCC2O)cc1-c1nnc2c(C)nc3ccc(C4CC4)nc3n12 (single isomer, unassigned) [Example 57a]			130	
Cc1ccc(OC2COCC2O)cc1-c1nnc2c(C)nc3ccc(C4CC4)nc3n12 (racemic) [Example 57]			130	
Cc1nc2ccc(C3CC3)nc2n2c(-c3cc(OC4COCC4O)ccc3Cl)nnc12 (single isomer, unassigned) [Example 58b]			130	
Cc1ccc(C2(O)CCOCC2O)cc1-c1nnc2c(C)nc3ccc(C4CC4)nc3n12 (single isomer, unassigned) [Example 104b]	30	9760	130	
Cc1nc2ccc(C(C)C)nc2n2c(-c3cc(OCC(C)(C)O)ccc3F)nnc12 [Example 52]	11	1200	130	
Cc1ccc2nc(C)c3nnc(-c4cc(OCC(C)(C)O)ccc4Cl)n3c2n1 [Example 46]	50		130	
Cc1nc2cccnc2n2c(-c3cc(OC4COCC4O)ccc3Cl)nnc12 (racemic) [Example 55]			130	IC50 (hERG channel): > 10 µM
Cc1ccc2nc(C)c3nnc(-c4cc(OC5CCOCC5)ccc4Cl)n3c2n1 [Example 32]			130	IC50 (hERG channel): > 10 µM
Cc1nc2ccc(C3CC3)nc2n2c(-c3cc(OC4COCC4O)ccc3Cl)nnc12 (single isomer, unassigned) [Example 58c]			130	
Cc1ccc2nc(C)c3nnc(-c4cc(OCCO)ccc4Cl)n3c2n1 [Example 28]				IC50 (hERG channel): > 10 µM
Cc1nc2ccc(C3CC3)nc2n2c(-c3cc(C4(O)CCC4)ccc3Cl)nnc12 [Example 88]	1			IC50 (hERG channel): > 10 µM
Cc1nc2ccc(C3(C)CC3)nc2n2c(-c3cc(C(C)(C)O)ccc3F)nnc12 [Example 72]	32		130	
Cc1ccc(OCC(C)(C)O)cc1-c1nnc2c(C)nc3ccc(C(C)C)nc3n12 [Example 51]	9		130	
Cc1nc2cccnc2n2c(-c3cc(OC4COCCC4O)ccc3Cl)nnc12 (single isomer, unassigned) [Example 58]	143	663	130	
Cc1nc2ccc(C3CC3)nc2n2c(-c3cc(OC4CCOCC4)ccc3Cl)nnc12 [Example 32a]		7390		IC50 (hERG channel): > 10 µM
CCC(O)c1ccc(Cl)c(-c2nnc3c(C)nc4ccc(C)nc4n23)c1 (centres unmarked) [Example 62]	11		130	
Cc1nc2cccnc2n2c(-c3cc(C(C)(C)O)ccc3Cl)nnc12 [Example 70]	163	8620	130	concentration at 2 h ([2]; brain, read-out: conc brain): 695 nM; Kp at 2 h [2, 3]: 0.29; concentration at 2 h ([2]; plasma, read-out: conc plasma): 2380 nM; concentration at 2 h ([2]; read-out: conc CSF): 276 nM; Kp at 2 h ([2]; read-out: c(CSF)/c(plasma)): 0.12

SMILES	IC50 (PDE2A) [nM]	IC50 (PDE10) [nM]	Half-life - t½ [1] [min]	also measured
Cc1ccc(CCC(C)(C)O)cc1-c1nnc2c(C)nc3ccc(C4CC4)nc3n12 [Example 68]	2	1010		IC50 (hERG channel): 8.3 µM
Cc1ccc2nc(C)c3nnc(-c4cc(C5(O)CCC5)ccc4C)n3c2n1 [Example 102]	103	2260	130	
Cc1ccc(C(C)(C)CO)cc1-c1nnc2c(C)nc3ccc(C4CC4)nc3n12 [Example 100]	17	3860		half-life at 1 μM [1]: 12 min
Cc1nc2ccc(C3CC3)nc2n2c(-c3cc(OC4COCC4O)ccc3Cl)nnc12 (racemic) [Example 58a]			130	
Cc1ccc2nc(C)c3nnc(-c4cc(C(O)C(C)C)ccc4Cl)n3c2n1 (centres unmarked) [Example 59]	8	936		half-life at 1 μM [1]: 49 min
Cc1ccc2nc(C)c3nnc(-c4cc(C5(O)CCC5)ccc4Cl)n3c2n1 [Example 89]		187	130	
Cc1ccc(OCC2(O)CCC2)cc1-c1nnc2c(C)nc3cccnc3n12 [Example 50]	194	7120	130	
Cc1nc2cccnc2n2c(-c3cc(C4(O)CCOC4)ccc3Cl)nnc12 (single isomer, unassigned) [Example 99]	125	1510	130	
Cc1nc2ccc(C3CC3)nc2n2c(-c3cc(CC(C)(C)O)ccc3F)nnc12 [Example 80]	10	5410		IC50 (hERG channel): > 10 µM
Cc1ccc(CCC(C)(C)O)cc1-c1nnc2c(C)nc3cccnc3n12 [Example 67]	175	3900	130	
Cc1nc2cc(C(C)C)cnc2n2c(-c3cc(OCC(C)(C)O)ccc3Cl)nnc12 [Example 54]	58	798	130	
Cc1nc2cccnc2n2c(-c3cc(OC[C@@H](C)O)ccc3Cl)nnc12 [Example 17]			130	
Cc1nc2cccnc2n2c(-c3cc(OC4COCC4O)ccc3Cl)nnc12 (single isomer, unassigned) [Example 55a]		2440	130	
Cc1ccc(C2(O)CCOCC2O)cc1-c1nnc2c(C)nc3ccc(C4CC4)nc3n12 (single isomer, unassigned) [Example 104a]	40	3230	130	
Cc1nc2cccnc2n2c(-c3cc(OCC(C)(C)O)ccc3Cl)nnc12 [Example 44]	156	6040	130	concentration at 0.5 h ([2]; brain, read-out: conc brain): 670 nM; Kp at 0.5 h [2, 3]: 0.31; concentration at 0.5 h ([2]; plasma, read-out: conc plasma): 2190 nM; concentration at 0.5 h ([2]; read-out: conc CSF): 228 nM; Kp at 0.5 h ([2]; read-out: c(CSF)/c(plasma)): 0.1
Cc1nc2ccc(C3CC3)nc2n2c(-c3cc(C4(O)CCC4)ccc3F)nnc12 [Example 84]	6	565		IC50 (hERG channel): 6.3 µM
Cc1ccc2nc(C)c3nnc(-c4cc(C(C)(C)O)ccc4Cl)n3c2n1 [Example 71]	109		130	
Cc1nc2ccc(C3CC3)nc2n2c(-c3cc(CC(C)(C)O)ccc3Cl)nnc12 [Example 83]	4	8820		IC50 (hERG channel): > 10 µM
Cc1ccc2nc(C)c3nnc(-c4cc(C(C)O)ccc4Cl)n3c2n1 (centres unmarked) [Example 63]	60	1710	130	
